The structures appear in SMILES notation.

A short description of the first data set: method code SF, from Hansch, C. & Leo, A. (1987). Log P database [Dataset]. Pomona College Medicinal Chemistry Project.
Settings: not given
What is called logP is a log measure of how a compound divides between an organic and an aqueous phase. The compound `Cn1ccc(=O)cc1` had a logP of -1.22.

Take `N#C/C(=C\c1ccccc1)C(N)=O`: the logP was determined as 1.5.

Regarding `CCOP(=S)(OCC)SCn1nnc2ccccc2c1=O`, the log partition coefficient (logP) came to 3.4.

As to `C/N=C/c1ccccc1`, the log partition coefficient (logP) amounted to 1.64.

In turn, `O=c1[nH]c2ccccc2o1` yielded a logP of 1.16.

The compound `CC(C)CCC(=O)c1ccoc1` registered a lipophilicity (logP) of 2.76.

Compound `Cc1nnc(C)s1` registered a logP of 0.03.

Turning to `COc1cc(C=NOC(=O)c2cc(OC)c(OC)c(OC)c2)ccc1OCCO`, the log partition coefficient (logP) is 2.7.

Turning to `Cc1cc(CSc2ccccc2Cl)c(O)c(C(=O)O)c1`, the lipophilicity (logP) was determined as 4.69.

Compound `CN(C)/N=N/c1cc(C#N)cc(C#N)c1` showed a logP of 2.18.

`CCC(C)(C)C` displayed a logP of 3.82.

The compound `ClCCOCCCl` came in with a logP of 1.29.

For `O=c1[nH]c(=O)n([C@H]2C[C@H](O)[C@@H](CO)O2)cc1C(F)(F)F`, the logP is -0.46.

The compound `CCOC(=O)/C(=C/c1cccc(F)c1)C(C)=O` gave a logP of 2.46.

In the case of `CCOC(=O)CC(=O)C=Cc1cccc(C)c1`, the logP was 2.8.

In turn, `CCCCNC(=O)n1c(NC(=O)OC)nc2ccccc21` had a log partition coefficient (logP) of 2.42.

For the compound `N#CN=[N+]([O-])c1ccc(Cl)cc1`, the logP was 2.33.

`Cc1cccc(OC(=O)N(C)C)c1` yielded a logP of 2.05.

Regarding `O=C(c1ccncc1)c1ccc([N+](=O)[O-])cc1`, the logP amounted to 1.76.

As to `O=c1[nH]ncc2ccccc12`, the logP was 0.75.

Compound `COC1OC(=O)c2ccccc21` (configuration not stated) returned a lipophilicity (logP) of 1.

`CNC(=O)C=Cc1ccccc1`: the lipophilicity (logP) was 1.81.

Compound `O=[N+]([O-])c1ccc(C=Cc2nccn2Cc2ccccc2)o1` came in with a lipophilicity (logP) of 1.55.

In turn, `O=c1[nH]c(=O)n([C@H]2C[C@H](O)[C@@H](CO)O2)cc1Br` showed a lipophilicity (logP) of -0.29.

In turn, `O=C(c1ccccc1)C(F)(F)F` gave a lipophilicity (logP) of 2.15.

In turn, `NC(=O)Cc1ccsc1` displayed a logP of 0.31.

Take `Cc1n[nH]cc1[N+](=O)[O-]`: the logP was 0.19.

In turn, `ClC(Cl)(Cl)Sc1ccccc1` yielded a logP of 3.78.

The compound `Cc1csc(N=C(N)N)n1` returned a log partition coefficient (logP) of 1.24.

`Nc1nc(=O)c2ccccc2o1`: the lipophilicity (logP) came to 0.27.

Compound `O=[N+]([O-])c1ccc2cccnc2c1` returned a logP of 1.82.

Compound `O=S1(=O)NC(c2cccs2)=Nc2ccccc21` came in with a logP of 1.68.

The compound `c1ccc(N2CCOCC2)cc1` registered a lipophilicity (logP) of 1.36.

For the compound `CS(=O)(=O)Oc1ccccc1`, the logP came to 1.25.

For the compound `CC(=O)CCC(=O)N(C)c1ccc(S(=O)(=O)N(C)C)cc1`, the log partition coefficient (logP) was 0.2.

`CCC(=O)OCC(=O)[C@@]1(OC(=O)CC)[C@@H](C)C[C@H]2[C@@H]3CCC4=CC(=O)C=C[C@]4(C)[C@@]3(F)[C@@H](O)C[C@@]21C` had a lipophilicity (logP) of 4.07.

Compound `CSc1cccc(NC(C)=O)c1` came in with a logP of 2.14.

Take `CC(=S)Nc1ccccc1`: the logP worked out at 1.71.

Turning to `CCCNCCC`, the logP was found to be 1.73.

Turning to `O=[N+]([O-])c1ccc(C=Cc2nccc(Cl)n2)o1`, the logP was found to be 1.31.

In turn, `O=Cc1ccsc1` gave a logP of 1.01.

The compound `c1ccc2oncc2c1` registered a logP of 1.63.

Consider `CC(C)n1cc(C(C)(C)C)nc1SSc1nc(C(C)(C)C)cn1C(C)C`, for which the lipophilicity (logP) amounted to 4.1.

`CCC1=Nc2ccc(Cl)cc2S(=O)(=O)N1` gave a log partition coefficient (logP) of 1.62.

The data set is the same for the next values; noted with them: pH 2.0.
A word on the logD: it is lipophilicity at a set pH, counting ionised and neutral species. High values mean higher lipophilicity, low ones lower lipophilicity. `CN(C)/N=N/c1ccccc1I` displayed a logD of 3.5.

The data set is the same for the next values; noted with them: pH 7.4.
Compound `CCn1c(C)c(N(C)C)c(=O)n(-c2ccccc2)c1=O` gave a logD of 1.8.

With `O=C(CCCN1CCC(n2c(=O)[nH]c3ccccc32)CC1)c1ccc(F)cc1`, the logD was determined as 3.91.

For the compound `CCN(CC)c1c(C)n(-c2ccccc2)c(=O)n(CC)c1=O`, the logD amounted to 2.78.

Compound `COc1ccc(-n2c(C)c(N(C)C)c(=O)n(C)c2=O)cc1` showed a logD of 1.96.

Staying with this data set, now noted: pH 11.0.
`CNCc1cccnc1` yielded a logD of 0.39.

Regarding `N=c1ccn2c(n1)OC1C(O)C(CO)OC12` (configuration not stated), the logD was -2.37.

The data set is the same for the next values; noted with them: pH 13.0.
`CC(=O)Nc1cccc(OCc2cccc(N3C(N)=NC(N)=NC3(C)C)c2)c1` registered a logD of 1.15.

For the origin of these results see the SangsterLogP compilation.
